Results reported in patent publication US5371099A, “Phenyl carboxamide isoxazoles” (Roussel-Uclaf, priority 1992, dated 1994).

Experiments:
[1] = test system: Delayed-type hypersensitivity rat paw oedema; assay: Test 3: Delayed-type hypersensitivity rat paw oedema (DTH-R)
[2] = test system: Delayed-type hypersensitivity mouse paw oedema; assay: Test 2: Delayed-type hypersensitivity mouse paw oedema (DTH-M); assay type: in vivo, mouse (male CD-1); conditions: po, 24 h; for inhibition in vivo at 100 mg/kg: 100 mg/kg p.o.
Procedure: Delayed-type hypersensitivity mouse paw oedema (DTH-M)
Groups of 8 to 10 mice, male CD-1 weighing 25-30 g were sensitized by the subcutaneous injection of 1 mg of methylated bovine serum albumin (MBSA) in 0.2 ml volumes of saline/Freund's complete adjuvant (FCA) emulsion. Negative control groups received injections of saline/FCA emulsion. DTH paw oedema responses were assessed twenty-four hours after the right hind foot pad challenge with 0.1 mg of MBSA in 0.05 ml volumes of saline on day seven after sensitization. Contralateral paws received control saline injections. The test compounds or control vehicles were orally administered daily on days four, five, six and twice on day seven, one hour before and six hours after MBSA challenge.
(§1) Doses are given in units of mg/kg p.o.

[3] = test system: Carrageenan rat paw oedema; assay: Test 1: Carrageenan rat paw oedema (PO-R); assay type: in vivo, rat (male CFHB); conditions: 3 h; for inhibition in vivo at 50 mg/kg: 50 mg/kg p.o.; for inhibition in vivo at 10 mg/kg: 10 mg/kg p.o.
Procedure: Carrageenan rat paw oedema (PO-R)
One hour after the oral administration of the test compounds or control vehicle to groups of 6 to 12 male CFHB rats, weighing 160-180 g, 1 mg of carrageenan dissolved in 0.2 ml of saline was injected into the right hind foot pad. Contralateral paws received control saline injections. Paw oedema responses were assessed three hours later.
as §1

[4] = Pharmacokinetic comparison, plasma concentrations of parent compound and active metabolite in mice; assay type: in vivo; conditions: 30 mg/kg orally
Procedure: A pharmacokinetic comparison was made between the compound of Example 8 in which R5 is methyl and the corresponding known compound in which R5 is hydrogen. Each compound was administered orally to mice at a dose of 30 mg/kg and plasma concentrations of the parent compound and the corresponding active metabolite were determined at various time points after administration.

[5] = Rattus norvegicus, po, 24 h, read-out: % Inhibition (Test 3, DTH-R)

| SMILES | inhibition in vivo at 50 mg/kg [1, 5] [%] | inhibition in vivo at 100 mg/kg [2] [%] | inhibition in vivo at 50 mg/kg [3] [%] | inhibition in vivo at 10 mg/kg [1, 5] [%] | other results |
| --- | --- | --- | --- | --- | --- |
| Cc1onc(C(=O)O)c1C(=O)Nc1ccc([N+](=O)[O-])cc1 [Example 1, 5-methyl-4-[N-(4-nitrophenyl)]carbamoyl-3-isoxazolecarboxylic acid] | 28 | 41 | -2 |  |  |
| Cc1onc(C(=O)O)c1C(=O)Nc1ccc(C#N)cc1 [Example 2, 4-[N-(4-cyanophenyl)]carbamoyl-5-methyl-3-isoxazolecarboxylic acid] | -47 | 27 | -25 |  |  |
| Cc1cc(NC(=O)c2c(C(=O)O)noc2C)ccc1Br [Example 3, 4-[N-(4-bromo-3-methyl)phenyl]carbamoyl-5-methyl-3-isoxazolecarboxylic acid] | -4 | 35 | -10 |  |  |
| Cc1cc(NC(=O)c2c(C(=O)O)noc2C)ccc1Cl [Example 4, 4-[N-(4-chloro-3-methyl)phenyl]carbamoyl-5-methyl-3-isoxazolecarboxylic acid] | 6 | 24 | -10 |  |  |
| Cc1cc(NC(=O)c2c(C(=O)O)noc2C)ccc1C(F)(F)F [Example 5, 5-methyl-4-[N-(3-methyl-4-trifluoromethyl)phenyl]carbamoyl-3-isoxazolecarboxylic acid] | 95 | 44 | 18 | 44 |  |
| Cc1cc(NC(=O)c2c(C(=O)O)noc2C)ccc1C#N [Example 6, 4-[N-(4-cyano-3-methyl)phenyl]carbamoyl-5-methyl-3-isoxazolecarboxylic acid] | 25 | 5 | 5 |  |  |
| Cc1onc(C(=O)O)c1C(=O)Nc1ccc(SC(F)(F)F)cc1 [Example 7, 5-methyl-4-[N-(4-trifluoromethylthio)phenyl]carbamoyl-3-isoxazolecarboxylicacid] | 73 | 14 | 1 | 42 |  |
| Cc1cc(NC(=O)c2c(C(=O)O)noc2C)ccc1OC(F)(F)F [Example 8, 5-methyl-4-[N-(3-methyl-4-trifluoromethoxy)phenyl]carbamoyl-3-isoxazolecarboxylic acid] | 79 | 48 |  | 34 | detectability of the active metabolite 24 hours after administration ([4]; plasma, 24 hours): no metabolite detectable; inhibition in vivo at 10 mg/kg [3]: 16% |
| O=C(O)c1noc(C2CC2)c1C(=O)Nc1ccc(C(F)(F)F)cc1 [Example 9, 5-cyclopropyl-4-[N-(4-trifluoromethyl)phenyl]carbamoyl-3-isoxazolecarboxylic acid] | 86 | 72 |  | 45 | pharmacokinetics compared with known compound in which R5 is hydrogen ([4]; effect of methyl substituent): improved pharmacokinetics; inhibition in vivo at 10 mg/kg [3]: -24% |
| Cc1cc(NC(=O)c2c(C(=O)O)noc2C2CC2)ccc1C(F)(F)F [Example 10, 5-cyclopropyl-4-[N-(3-methyl-4-trifluoromethyl)phenyl]carbamoyl-3-isoxazolecarboxylic acid] | 73 | 12 | 5 |  |  |
| O=C(O)c1noc(C2CC2)c1C(=O)Nc1ccc(OC(F)(F)F)cc1 [Example 11] |  | 65 |  | 95 | toxicity printed in place of % Inhibition (Test 3, DTH-R) ([1]; 50 mg/kg p.o.): Toxic; inhibition in vivo at 3 mg/kg [1, 5]: 65%; inhibition in vivo at 30 mg/kg ([2]; 30 mg/kg p.o.): 37%; inhibition in vivo at 3 mg/kg ([3]; 3 mg/kg p.o.): -2% |
| O=C(O)c1noc(C2CC2)c1C(=O)Nc1ccc(SC(F)(F)F)cc1 [Example 12, 5-cyclopropyl-4-[N-(4-trifluoromethylthio)phenyl]carbamoyl-3-isoxazolecarboxylic acid] |  | 36 |  | 75 | inhibition in vivo at 10 mg/kg [3]: 11% |
| Cc1cc(NC(=O)c2c(C(=O)O)noc2C2CC2)ccc1OC(F)(F)F [Example 13, 5-cyclopropyl-4-[N-(3-methyl-4-trifluoromethoxy)phenyl]carbamoyl-3-isoxazolecarboxylic acid] |  | 52 |  | 47 | inhibition in vivo at 10 mg/kg [3]: 5% |
| CCOC(=O)c1noc(C)c1C(=O)Nc1ccc(C(F)(F)F)c(C)c1 [Example 18, Ethyl 5-methyl-4-[N-(3-methyl-4-trifluoromethyl)phenyl]carbamoyl-3-isoxazolecarboxylate] | 50 | 3 | 23 |  |  |
| Cc1onc(C(=O)O)c1C(=O)Nc1ccc(OC(F)(F)F)cc1 [known compound, reference compound] |  |  |  |  | detectability of the active metabolite at 72 hours after administration ([4]; plasma, 72 hours): still being detectable |
